The values below come from patent US20190070170A1, “METHOD OF S[…]-1” (Macau University of Science and Technology, priority 2017, published 2019).

Common to all, as to assay type: cell-based
The subject of one experiment is cPLA2. Put plainly: cPLA2 protein expression in LPS-activated rat peritoneal macrophages (western blotting). Particulars: SIN or DEX 1 h, LPS 24 h. Here is the method:
(§1) Sprague-Dawley (SD) rats from the University of Hong Kong were housed in cages with free access to food and water. Peritoneal macrophages of SD rats were isolated as described in Liu J. et al., Pharmacological research 2016, 111:303-315. Briefly, untreated rats were sacrificed and after laparotomy, about 50 ml cold sterile Hank's balanced salt solution (HBSS) was used to lavage the peritoneal cavity at twice, and then the peritoneal lavage fluid was collected and centrifuged at 1500 rpm for 10 min. The cell pellets was suspended at a density 1.5×10^6 cells/ml in pre-hearted DMEM medium with 10% heat-inactivated FBS, penicillin G (100 units/ml), streptomycin ([…]), and L-glutamine (2 mM), followed by seeding in 6-well plates at a density of 4.5×10^6 cells and incubation for 2 h. Then the medium were discarded to remove the non-adherent cells. The adherent cells were further washed for two times with pre-heated DMEM medium to remove floating cells. Next, cells were pre-treated with various concentration of SIN for 1 h, followed by stimulation with LPS (1 μg/ml).
(§2) Whole-cell and nuclear proteins were obtained using RIPA lysis buffer (CST, Boston, Mass., USA) and Nuclear and Cytoplasmic Extraction Reagents kit from Thermo Scientific (Asheville, N.C., USA), respectively. […] The levels of protein expression were measured using Odyssey v3.0 software from Li-COR (Lincoln, Nebr., USA).
(In general: In western blotting, separated proteins are transferred to a membrane and probed.)

In a further experiment the test system is TXA2. Put plainly: TXA2 level in culture supernatants of LPS-activated rat peritoneal macrophages (ELISA). Particulars: LPS-stimulated rat peritoneal macrophages, culture supernatant. The method, then:
as §1
RAW264.7 cells and rat peritoneal macrophages were seeded in a 96-well plate at density of 1.4×10^4 and 1.5×10^5 cells, respectively. […] The optical density was measured at 570 nm against a reference wavelength of 650 nm using a microplate UV/VIS spectrophotometer (Tecan, Mannedorf, Switzerland). […]

Another experiment deals with CREB. Description: CREB pathway (p-CREB) in LPS-stimulated rat peritoneal macrophages (western blotting). As to conditions: SIN 1 h, LPS 1 μg/ml 15 min or 1 h. Here is the method: as §1, §2
A further experiment deals with mPGES-1. Description: mPGES-1 protein expression in IL-1β-stimulated A549 cells (western blotting). Particulars: IL-1β with SIN or DEX for 48 h. The method, then: RAW264.7 and A549 cell lines were obtained from American Type Culture Collection (ATCC, Manassas, Va., USA) and maintained in DMEM (RAW264.7) or 1640 (A549) medium containing 10% FBS (Gibco-BRL, Grand Island, N.Y., USA) and antibiotics at 37° C. in a humidified atmosphere containing 5% CO2. RAW264.7 cells were plated in 6-well plates at a density of 4×10^5 cells and incubated for 24 h, then the cells were pretreated with different concentrations of SIN for 1 h before stimulating with LPS (100 ng/ml). A549 cells were seeded in 6-well plates at a density of 1×10^5 cells and incubated for 24 h, followed by pretreatment with SIN. A549 cells were then stimulated by IL-1β (1 ng/ml).
Whole-cell and nuclear proteins were obtained using RIPA lysis buffer (CST, Boston, Mass., USA) and Nuclear and Cytoplasmic Extraction Reagents kit from Thermo Scientific (Asheville, N.C., USA), respectively. For immunoblotting, proteins from whole-cell, cytoplasm, nuclear, and microsomal fractions were separated on SDS-PAGE, then transferred onto a nitrocellulose membrane from GE Healthcare Life Sciences (Buckinghamshire, UK), and incubated with 5% skimmed milk at room temperature for 1 h. […] The levels of protein expression were measured using Odyssey v3.0 software from Li-COR (Lincoln, Nebr., USA).

For `COC1=C[C@@H]2[C@@H]3Cc4ccc(OC)c(O)c4[C@]2(CCN3C)CC1=O` [SIN, sinomenine], the cPLA2 expression result in the experiment on cPLA2 is on record as “no influences”. Moreover, the “level of TXA2” value in the experiment on TXA2 is recorded as “no significant influence”. Also, the “influence on CREB pathway” value with CREB is recorded as “No observable effects”. Besides, the mPGES-1 protein expression entry in the experiment on mPGES-1 is “significantly and dose-dependently inhibited”.
